Earlier results on one compound are cited in PMC9885524 (Journal of natural products, 2023).

The data set deals with live SARS-CoV-2. As to conditions: read-out: half-maximal effective concentrations against live SARS-CoV-2 in vitro; depending on the SARS-CoV-2 variant.

As to `Oc1ccc([C@@H]2c3c(O)cc(O)cc3[C@@H]3c4c(cc(O)cc4[C@H]2[C@@H]2c4cc(O)cc5c4[C@@H](c4cc(O)cc(O)c4[C@H]2c2ccc(O)cc2)[C@H](c2ccc(O)cc2)O5)O[C@H]3c2ccc(O)cc2)cc1` [(−)-hopeaphenol, (−)-Hopeaphenol], the EC50 was 7.5 to 23 µM.
